Experimental data published in PubChem BioAssay AID1963972 (Molecular Pharmacology Branch, DTP, NCI, 2024).

Test system: 945468-187-T-J2-PDC spheroids viability
Test: Anticancer human tumor 945468-187-T-J2-PDC patient-derived rectal carcinoma cell line growth inhibition [PI3K]
Conditions: spheroids with HUVEC and MSC; for IC50: curve of first compound; for viability, T/C: stronger effect = lower value
From the text: Combinatorial screen of targeted agents with the PI3K inhibitors inavolisib, alpelisib, duvelisib, and copanlisib in multi-cell type tumor spheroids
A high-throughput screen of multi-cell type tumor spheroids was designed to identify active combinations of targeted small molecules and PI3K pathway inhibitors. Complex spheroids include a stromal component modeled by human endothelial cells (HUVEC) and fibroblasts modeled by human mesenchymal stem cells (MSCs). The concentration ranges selected for each drug and investigational agent were based upon clinically achievable concentrations if the clinical Cmax of the agent was known.
Compounds. The drugs and investigational agents: inavolisib (NSC800729), alpelisib (NSC765974), duvelisib (NSC772469), copanlisib (NSC816437), ipatasertib (NSC767898), afuresertib (NSC778305), talazoparib (NSC767125), sapanisertib (NSC764658), selumetinib (NSC741078), tovorafenib (DAY101, NSC766906), vemurafenib (NSC761431), ravoxertinib (NSC781343), sotorasib (NSC818433), MRTX1133 (NSC 836407), abemaciclib (NSC 768073), palbociclib (NSC758247), venetoclax (NSC 766270), SY5609 (NSC837396), enzalutamide (NSC755605), and darolutamide (NSC825331), were obtained from the National Cancer Institute (NCI) Developmental Therapeutics Program Chemical Repository. The FDA-approved anticancer drug set is available from the NCI Developmental Therapeutics Program. […] The stock solutions were prepared in dimethyl sulfoxide (DMSO, Sigma-Aldrich, St. Louis, MO, cat. D2650) at 800-fold the tested concentration and stored at -70 degrees C prior to their use. All drugs and investigational agents were tested over a range starting from a high concentration at or near the clinical Cmax and decreasing in half-log increments. If the clinical Cmax for an agent had not been determined, the highest concentration tested was 10 microM.
Cell Culture. All cells were maintained in an incubator at 37 degrees C and 5% CO2 with 95% humidity. The PDC lines were cultured according to standard operating procedures established by the NCI PDMR (https://pdmr.cancer.gov/sops/default.htm). All PDCs were thawed and cultured in Matrigel-coated flasks prepared with a working solution of 1X Ham's F-12 nutrient mix, without supplementation (Invitrogen, Waltham, MA, cat. 11765054), 100 U/mL penicillin-streptomycin (Invitrogen, cat. 15140122), and 2.5% Matrigel (Corning Inc., Corning, NY, cat. 354248) for the first three passages. The 354836-022-R-J1-PDC, 475296-252-R-J1-PDC, and 997726-040-R-J2-PDC lines were cultured in 6A media, which includes advanced DMEM/F-12 (Thermo Fisher Scientific, cat. 12634028), 10 mM HEPES (Thermo Fisher Scientific, cat. 15630080), 1X GlutaMAX supplement (Thermo Fisher Scientific, cat. 35050061), 0.1 mg/mL primocin (InvivoGen, San Diego, CA, cat. ant-pm-2), 10% defined fetal bovine serum, heat inactivated (HyClone Laboratories Inc., Logan, UT, cat. SH30070.03HI), 50% L-WRN conditioned media (ATCC, cat. CRL-3276), 1.25 mM N-Acetyl-L-cysteine (Sigma-Aldrich, cat. A9165), 10 mM nicotinamide (Sigma-Aldrich, cat. N0636), 1X B-27 supplement (Thermo Fisher Scientific, cat. 17504044), 1X N-2 supplement (Thermo Fisher Scientific, cat. 17502048), and 10 microM Y-27632 dihydrochloride (Tocris Bioscience, Bristol, United Kingdom, cat. 1254). The 624824-186-R-J2-PDC line was cultured in 6C/Colon 1B media, which includes all 6A media components plus 50 ng/mL human EGF recombinant protein (Thermo Fisher Scientific, cat. PHG0311). […]

[1] = second compound 0.00316 µM, first compound 0.0316 µM
[2] = second compound 0.00316 µM, first compound 0.1 µM
[3] = second compound 0.01 µM, first compound 0.0316 µM
[4] = second compound 0.01 µM, first compound 0.1 µM
[5] = second compound 0.0316 µM, first compound 0.0316 µM
[6] = second compound 0.0316 µM, first compound 0.1 µM
[7] = second compound 0.1 µM, first compound 0.0316 µM
[8] = second compound 0.1 µM, first compound 0.1 µM
[9] = second compound 0.316 µM, first compound 0.0316 µM
[10] = second compound 0.316 µM, first compound 0.1 µM
[11] = second compound 1 µM, first compound 0.0316 µM
[12] = second compound 1 µM, first compound 0.1 µM
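Also: spheroids exposed to compounds for seven days before reading.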

Question: Which results are given for `CC(C)NCC(C(=O)N1CCN(c2ncnc3c2C(C)CC3O)CC1)c1ccc(Cl)cc1` (centres undefined) + CC(Nc1ccc2c(c1)OCCn1cc(N3C(=O)OCC3C(F)F)nc1-2)C(N)=O?
Answer: IC50 (second compound 0.00316 µM): > 10 µM; IC50 (second compound 0.01 µM): > 10 µM; IC50 (second compound 0.0316 µM): > 10 µM; IC50 (second compound 0.1 µM): > 10 µM; IC50 (second compound 0.316 µM): > 10 µM; IC50 (second compound 1 µM): > 10 µM; viability, T/C [1]: 84.4%; viability, T/C [2]: 114%; viability, T/C (second compound 0.00316 µM, first compound 0.316 µM): 79.4%; viability, T/C (second compound 0.00316 µM, first compound 1 µM): 86.4%; viability, T/C (second compound 0.00316 µM, first compound 3.16 µM): 104%; viability, T/C (second compound 0.00316 µM, first compound 10 µM): 99.3%; viability, T/C [3]: 110%; viability, T/C [4]: 92.3%; viability, T/C (second compound 0.01 µM, first compound 0.316 µM): 96.2%; viability, T/C (second compound 0.01 µM, first compound 1 µM): 71.6%; viability, T/C (second compound 0.01 µM, first compound 3.16 µM): 97.7%; viability, T/C (second compound 0.01 µM, first compound 10 µM): 98.9%; viability, T/C [5]: 93.6%; viability, T/C [6]: 89.5%; viability, T/C (second compound 0.0316 µM, first compound 0.316 µM): 95.2%; viability, T/C (second compound 0.0316 µM, first compound 1 µM): 90.7%; viability, T/C (second compound 0.0316 µM, first compound 3.16 µM): 96.9%; viability, T/C (second compound 0.0316 µM, first compound 10 µM): 92.9%; viability, T/C [7]: 121%; viability, T/C [8]: 77.1%; viability, T/C (second compound 0.1 µM, first compound 0.316 µM): 82.8%; viability, T/C (second compound 0.1 µM, first compound 1 µM): 81.3%; viability, T/C (second compound 0.1 µM, first compound 3.16 µM): 89.9%; viability, T/C (second compound 0.1 µM, first compound 10 µM): 78.4%; viability, T/C [9]: 72.5%; viability, T/C [10]: 77.2%; viability, T/C (second compound 0.316 µM, first compound 0.316 µM): 76.2%; viability, T/C (second compound 0.316 µM, first compound 1 µM): 87%; viability, T/C (second compound 0.316 µM, first compound 3.16 µM): 84.2%; viability, T/C (second compound 0.316 µM, first compound 10 µM): 81.9%; viability, T/C [11]: 76.5%; viability, T/C [12]: 65.3%; viability, T/C (second compound 1 µM, first compound 0.316 µM): 75.6%; viability, T/C (second compound 1 µM, first compound 1 µM): 71.2%; viability, T/C (second compound 1 µM, first compound 3.16 µM): 68.5%; viability, T/C (second compound 1 µM, first compound 10 µM): 59.7%

Question: Which IC50 (second compound 0.00316 µM) does the source give for `Cn1ncnc1[C@H]1c2n[nH]c(=O)c3cc(F)cc(c23)N[C@@H]1c1ccc(F)cc1` + CC(Nc1ccc2c(c1)OCCn1cc(N3C(=O)OCC3C(F)F)nc1-2)C(N)=O here?
Answer: The IC50 was over 0.1 µM.

Question: What about the IC50 (second compound 0.01 µM) of the same compound?
Answer: The IC50 was over 0.1 µM.

Question: And the IC50 (second compound 0.0316 µM)?
Answer: Its IC50 is over 0.1 µM.

Question: What about the IC50 (second compound 0.1 µM) of the same compound?
Answer: The IC50 was over 0.1 µM.

Question: What about the IC50 (second compound 0.316 µM) of the same compound?
Answer: Its IC50 is over 0.1 µM.

Question: What about the IC50 (second compound 1 µM) of the same compound?
Answer: The IC50 was over 0.1 µM.

Question: What about the viability, T/C (second compound 0.00316 µM, first compound 0.000316 µM) of the same compound?
Answer: The viability, T/C was 103%.

Question: And the viability, T/C (second compound 0.00316 µM, first compound 0.001 µM)?
Answer: Its viability, T/C is 114%.

Question: And the viability, T/C (second compound 0.00316 µM, first compound 0.00316 µM)?
Answer: The viability, T/C was 105%.

Question: And the viability, T/C (second compound 0.00316 µM, first compound 0.01 µM)?
Answer: The viability, T/C was 86.6%.

Question: What about the viability, T/C [1] of the same compound?
Answer: The viability, T/C was 92.6%.

Question: And the viability, T/C [2]?
Answer: The viability, T/C was 99.7%.

Question: And the viability, T/C (second compound 0.01 µM, first compound 0.000316 µM)?
Answer: The viability, T/C was 131%.

Question: And the viability, T/C (second compound 0.01 µM, first compound 0.001 µM)?
Answer: The viability, T/C was 99.1%.

Question: And the viability, T/C (second compound 0.01 µM, first compound 0.00316 µM)?
Answer: Its viability, T/C is 107%.

Question: And the viability, T/C (second compound 0.01 µM, first compound 0.01 µM)?
Answer: Its viability, T/C is 84.5%.

Question: And the viability, T/C [3]?
Answer: The viability, T/C was 110%.

Question: What about the viability, T/C [4] of the same compound?
Answer: The viability, T/C was 123%.

Question: And the viability, T/C (second compound 0.0316 µM, first compound 0.000316 µM)?
Answer: The viability, T/C was 129%.

Question: And the viability, T/C (second compound 0.0316 µM, first compound 0.001 µM)?
Answer: Its viability, T/C is 139%.

Question: What about the viability, T/C (second compound 0.0316 µM, first compound 0.00316 µM) of the same compound?
Answer: The viability, T/C was 100%.

Question: What about the viability, T/C (second compound 0.0316 µM, first compound 0.01 µM) of the same compound?
Answer: Its viability, T/C is 98.8%.

Question: What about the viability, T/C [5] of the same compound?
Answer: The viability, T/C was 96.3%.

Question: What about the viability, T/C [6] of the same compound?
Answer: The viability, T/C was 123%.

Question: What about the viability, T/C (second compound 0.1 µM, first compound 0.000316 µM) of the same compound?
Answer: The viability, T/C was 87.6%.

Question: What about the viability, T/C (second compound 0.1 µM, first compound 0.001 µM) of the same compound?
Answer: The viability, T/C was 112%.

Question: What about the viability, T/C (second compound 0.1 µM, first compound 0.00316 µM) of the same compound?
Answer: Its viability, T/C is 96.8%.

Question: And the viability, T/C (second compound 0.1 µM, first compound 0.01 µM)?
Answer: The viability, T/C was 89.1%.

Question: And the viability, T/C [7]?
Answer: Its viability, T/C is 118%.

Question: And the viability, T/C [8]?
Answer: The viability, T/C was 102%.

Question: What about the viability, T/C (second compound 0.316 µM, first compound 0.000316 µM) of the same compound?
Answer: Its viability, T/C is 82.3%.

Question: And the viability, T/C (second compound 0.316 µM, first compound 0.001 µM)?
Answer: The viability, T/C was 103%.

Question: And the viability, T/C (second compound 0.316 µM, first compound 0.00316 µM)?
Answer: Its viability, T/C is 100%.

Question: And the viability, T/C (second compound 0.316 µM, first compound 0.01 µM)?
Answer: The viability, T/C was 88%.

Question: And the viability, T/C [9]?
Answer: The viability, T/C was 99.7%.

Question: What about the viability, T/C [10] of the same compound?
Answer: Its viability, T/C is 99.6%.

Question: And the viability, T/C (second compound 1 µM, first compound 0.000316 µM)?
Answer: The viability, T/C was 77.1%.

Question: What about the viability, T/C (second compound 1 µM, first compound 0.001 µM) of the same compound?
Answer: Its viability, T/C is 84.3%.

Question: And the viability, T/C (second compound 1 µM, first compound 0.00316 µM)?
Answer: Its viability, T/C is 75.9%.

Question: What about the viability, T/C (second compound 1 µM, first compound 0.01 µM) of the same compound?
Answer: Its viability, T/C is 84.9%.

Question: What about the viability, T/C [11] of the same compound?
Answer: The viability, T/C was 79.2%.

Question: What about the viability, T/C [12] of the same compound?
Answer: The viability, T/C was 77.2%.
